Experiments:
Japanese bulrush = assay: Test Example 1: herbicidal activity, application before weed generation under submerged conditions (Table 16, symbol B); type: in vivo, Japanese bulrush (Schoenoplectus juncoides); conditions: 320 g/ha applied herbicide
How it was run: (§1)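 Emulsion formulation, water-diluted to set dose, was put onto the flooded surface (4 cm depth, alluvial soil) the same day weeds were sown and 2.5-leaf rice transplanted. After 3 weeks at 25-30 °C under glass, each species was rated 0 (≤5% kill) to 5 (≥90% kill).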

velvetleaf [1] = assay: Test Example 5: herbicidal effect by foliage application, plastic box (Table 20, symbol M); type: in vivo, velvetleaf (Abutilon theophrasti); conditions: foliage application, 320 g/ha, evaluated three weeks after application
How it was run: (§2)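 Sow seeds spot-wise in sterilized diluvial soil; cover with ~1.5 cm soil. Grow 14 days in greenhouse, 25° C. to 30° C. Spray foliage with emulsion diluted to predetermined amount. Rate effect after 3 weeks.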

lambsquarters [2] = assay: Test Example 5: herbicidal effect by foliage application, plastic box (Table 20, symbol O); type: in vivo, lambsquarters (Chenopodium album); conditions: foliage application, 320 g/ha, evaluated three weeks after application
How it was run: as §2

redroot pigweed [3] = assay: Test Example 4: herbicidal effect by soil treatment (Table 19, symbol N); type: in vivo, redroot pigweed (Amaranthus retroflexus); conditions: amount of applied herbicide 320 g/ha
How it was run: (§3)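 Soil-surface application: an emulsion agent diluted with water to the predetermined dose is sprayed uniformly over seeds lying under roughly 1.5 cm of sterilized diluvial soil. Boxes stay in a greenhouse at 25° C. to 30° C. Three weeks later, each species is graded on previously defined criteria.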

blackgrass [4] = assay: Test Example 5: herbicidal effect by foliage application, plastic box (Table 20, symbol J); type: in vivo, blackgrass (Alopecurus myosuroides); conditions: foliage application, 320 g/ha, evaluated three weeks after application
How it was run: as §2

Italian ryegrass [5] = assay: Test Example 5: herbicidal effect by foliage application, plastic box (Table 20, symbol K); type: in vivo, Italian ryegrass (Lolium multiflorum); conditions: foliage application, 320 g/ha, evaluated three weeks after application
How it was run: as §2

southern crabgrass [6] = assay: Test Example 5: herbicidal effect by foliage application, plastic box (Table 20, symbol F); type: in vivo, southern crabgrass (Digitaria ciliaris); conditions: foliage application, 320 g/ha, evaluated three weeks after application
How it was run: as §2

wild oat [7] = assay: Test Example 4: herbicidal effect by soil treatment (Table 19, symbol I); type: in vivo, wild oat (Avena fatua); conditions: amount of applied herbicide 320 g/ha
How it was run: as §3

barnyard grass [8] = assay: Test Example 4: herbicidal effect by soil treatment (Table 19, symbol H); type: in vivo, barnyard grass (Echinochloa crus-galli); conditions: amount of applied herbicide 320 g/ha
How it was run: as §3

windgrass [9] = assay: Test Example 4: herbicidal effect by soil treatment (Table 19, symbol L); type: in vivo, windgrass (Apera spica-venti); conditions: amount of applied herbicide 320 g/ha
How it was run: as §3

Chinese sprangletop = assay: Test Example 3: herbicidal effect by foliage application, Wagner pot (Table 18, symbol D); type: in vivo, chinese sprangletop (Leptochloa chinensis); conditions: amount of applied herbicide 320 g/ha
How it was run: (§4)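 Plants were sown in alluvial soil held under 0.1–0.5 cm standing water and grown 14 days in a greenhouse at 25–30 °C. An emulsifiable formulation, water-diluted to the set dose, was then sprayed onto the foliage, and effects were scored three weeks later using previously defined criteria.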

blackgrass [10] = assay: Test Example 4: herbicidal effect by soil treatment (Table 19, symbol J); type: in vivo, blackgrass (Alopecurus myosuroides); conditions: amount of applied herbicide 320 g/ha
How it was run: as §3

chickweed [11] = assay: Test Example 5: herbicidal effect by foliage application, plastic box (Table 20, symbol P); type: in vivo, common chickweed (Stellaria media); conditions: foliage application, 320 g/ha, evaluated three weeks after application
How it was run: as §2

persian speedwell [12] = assay: Test Example 4: herbicidal effect by soil treatment (Table 19, symbol R); type: in vivo, Persian speedwell (Veronica persica); conditions: amount of applied herbicide 320 g/ha
How it was run: as §3

late watergrass = assay: Test Example 1: herbicidal activity, application before weed generation under submerged conditions (Table 16, symbol A); type: in vivo, late watergrass (Echinochloa oryzicola); conditions: 320 g/ha applied herbicide
How it was run: as §1

southern crabgrass [13] = assay: Test Example 4: herbicidal effect by soil treatment (Table 19, symbol F); type: in vivo, southern crabgrass (Digitaria ciliaris); conditions: amount of applied herbicide 320 g/ha
How it was run: as §3

wild oat [14] = assay: Test Example 5: herbicidal effect by foliage application, plastic box (Table 20, symbol I); type: in vivo, wild oat (Avena fatua); conditions: foliage application, 320 g/ha, evaluated three weeks after application
How it was run: as §2

redroot pigweed [15] = assay: Test Example 5: herbicidal effect by foliage application, plastic box (Table 20, symbol N); type: in vivo, redroot pigweed (Amaranthus retroflexus); conditions: foliage application, 320 g/ha, evaluated three weeks after application
How it was run: as §2

green foxtail [16] = assay: Test Example 5: herbicidal effect by foliage application, plastic box (Table 20, symbol G); type: in vivo, green foxtail (Setaria viridis); conditions: foliage application, 320 g/ha, evaluated three weeks after application
How it was run: as §2

Italian ryegrass [17] = assay: Test Example 4: herbicidal effect by soil treatment (Table 19, symbol K); type: in vivo, Italian ryegrass (Lolium multiflorum); conditions: amount of applied herbicide 320 g/ha
How it was run: as §3

persian speedwell [18] = assay: Test Example 5: herbicidal effect by foliage application, plastic box (Table 20, symbol R); type: in vivo, Persian speedwell (Veronica persica); conditions: foliage application, 320 g/ha, evaluated three weeks after application
How it was run: as §2

windgrass [19] = assay: Test Example 5: herbicidal effect by foliage application, plastic box (Table 20, symbol L); type: in vivo, windgrass (Apera spica-venti); conditions: foliage application, 320 g/ha, evaluated three weeks after application
How it was run: as §2

lambsquarters [20] = assay: Test Example 4: herbicidal effect by soil treatment (Table 19, symbol O); type: in vivo, lambsquarters (Chenopodium album); conditions: amount of applied herbicide 320 g/ha
How it was run: as §3

barnyard grass [21] = assay: Test Example 3: herbicidal effect by foliage application, Wagner pot (Table 18, symbol H); type: in vivo, barnyard grass (Echinochloa crus-galli); conditions: amount of applied herbicide 320 g/ha
How it was run: as §4

oval-leafed pondweed = assay: Test Example 1: herbicidal activity, application before weed generation under submerged conditions (Table 16, symbol C); type: in vivo, oval-leafed pondweed (Monochoria vaginalis); conditions: 320 g/ha applied herbicide
How it was run: as §1

rice flat sedge = assay: Test Example 3: herbicidal effect by foliage application, Wagner pot (Table 18, symbol E); type: in vivo, rice flat sedge (Cyperus iria); conditions: amount of applied herbicide 320 g/ha
How it was run: as §4

velvetleaf [22] = assay: Test Example 4: herbicidal effect by soil treatment (Table 19, symbol M); type: in vivo, velvetleaf (Abutilon theophrasti); conditions: amount of applied herbicide 320 g/ha
How it was run: as §3

green foxtail [23] = assay: Test Example 4: herbicidal effect by soil treatment (Table 19, symbol G); type: in vivo, green foxtail (Setaria viridis); conditions: amount of applied herbicide 320 g/ha
How it was run: as §3

barnyard grass [24] = assay: Test Example 5: herbicidal effect by foliage application, plastic box (Table 20, symbol H); type: in vivo, barnyard grass (Echinochloa crus-galli); conditions: foliage application, 320 g/ha, evaluated three weeks after application
How it was run: as §2

chickweed [25] = assay: Test Example 4: herbicidal effect by soil treatment (Table 19, symbol P); type: in vivo, common chickweed (Stellaria media); conditions: amount of applied herbicide 320 g/ha
How it was run: as §3

## CCCSc1cccc(-c2sc3ccc(F)cc3c2-c2c(O)c(C)nn(C)c2=O)c1 [2-246]
Japanese bulrush
  Herbicidal effect on B: Japanese bulrush (grade 0-5): 0 (Herbicidal rate of 5% or less (almost no effect))
Velvetleaf [1]
  herbicidal effect on M: velvetleaf (criteria 0-5): 3 (Herbicidal rate of 40% or more and less than 70%)
Lambsquarters [2]
  herbicidal effect on O: lambsquarters (criteria 0-5): 0 (Herbicidal rate of 5% or less (almost no effect))
Redroot pigweed [3]
  herbicidal effect on N: redroot pigweed: 0 (Herbicidal rate of 5% or less (almost no effect))
Blackgrass [4]
  herbicidal effect on J: blackgrass (criteria 0-5): 1 (Herbicidal rate of 5% or more and less than 20%)
Italian ryegrass [5]
  herbicidal effect on K: Italian ryegrass (criteria 0-5): 2 (Herbicidal rate of 20% or more and less than 40%)
Southern crabgrass [6]
  herbicidal effect on F: southern crabgrass (criteria 0-5): 0 (Herbicidal rate of 5% or less (almost no effect))
Wild oat [7]
  herbicidal effect on I: wild oat: 0 (Herbicidal rate of 5% or less (almost no effect))
Barnyard grass [8]
  herbicidal effect on H: barnyard grass: 0 (Herbicidal rate of 5% or less (almost no effect))
Windgrass [9]
  herbicidal effect on L: windgrass: 0 (Herbicidal rate of 5% or less (almost no effect))
Chinese sprangletop
  herbicidal effect on D: Chinese sprangletop: 0 (Herbicidal rate of 5% or less (almost no effect))
Blackgrass [10]
  herbicidal effect on J: blackgrass: 0 (Herbicidal rate of 5% or less (almost no effect))
Chickweed [11]
  herbicidal effect on P: chickweed (criteria 0-5): 5 (Herbicidal rate of 90% or more (almost completely withered))
Persian speedwell [12]
  herbicidal effect on R: persian speedwell: 5 (Herbicidal rate of 90% or more (almost completely withered))
Late watergrass
  Herbicidal effect on A: late watergrass (grade 0-5): 2 (Herbicidal rate of 20% or more and less than 40%)
Southern crabgrass [13]
  herbicidal effect on F: southern crabgrass: 0 (Herbicidal rate of 5% or less (almost no effect))
Wild oat [14]
  herbicidal effect on I: wild oat (criteria 0-5): 4 (Herbicidal rate of 70% or more and less than 90%)
Redroot pigweed [15]
  herbicidal effect on N: redroot pigweed (criteria 0-5): 3 (Herbicidal rate of 40% or more and less than 70%)
Green foxtail [16]
  herbicidal effect on G: green foxtail (criteria 0-5): 0 (Herbicidal rate of 5% or less (almost no effect))
Italian ryegrass [17]
  herbicidal effect on K: Italian ryegrass: 0 (Herbicidal rate of 5% or less (almost no effect))
Persian speedwell [18]
  herbicidal effect on R: persian speedwell (criteria 0-5): 5 (Herbicidal rate of 90% or more (almost completely withered))
Windgrass [19]
  herbicidal effect on L: windgrass (criteria 0-5): 3 (Herbicidal rate of 40% or more and less than 70%)
Lambsquarters [20]
  herbicidal effect on O: lambsquarters: 0 (Herbicidal rate of 5% or less (almost no effect))
Barnyard grass [21]
  herbicidal effect on H: barnyard grass: 3 (Herbicidal rate of 40% or more and less than 70%)
oval-leafed pondweed
  Herbicidal effect on C: oval-leafed pondweed (grade 0-5): 0 (Herbicidal rate of 5% or less (almost no effect))
Rice flat sedge
  herbicidal effect on E: rice flat sedge: 3 (Herbicidal rate of 40% or more and less than 70%)
Velvetleaf [22]
  herbicidal effect on M: velvetleaf: 0 (Herbicidal rate of 5% or less (almost no effect))
Green foxtail [23]
  herbicidal effect on G: green foxtail: 0 (Herbicidal rate of 5% or less (almost no effect))
Barnyard grass [24]
  herbicidal effect on H: barnyard grass (criteria 0-5): 0 (Herbicidal rate of 5% or less (almost no effect))
Chickweed [25]
  herbicidal effect on P: chickweed: 3 (Herbicidal rate of 40% or more and less than 70%)
